Among the test systems are HT29 colon; NCI-H23 lung; NCI/ADR-RES ovarian; SK-MEL-28 melanoma; SN12C renal; SNB-19 CNS; CCRF-CEM leukemia; HCC-2998 colon; UO-31 renal; HOP-92 NSCLC.
What all share (assay): NCI-60 cell line screen, 48 h

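Cultured in 96-well plates, cells were exposed to test compound for 48 hours across five concentrations. TGI marks complete inhibition of growth.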

`CC(=O)Nc1ccc2c3c(cc(O)c2c1)N(C(=O)CCCCCCC(=O)N1CC(CCl)c2c1cc(O)c1cc(NC(C)=O)ccc21)CC3CCl` (centres undefined): the TGI in the experiment with HT29 colon is over 100 µM; in the experiment with NCI-H23 lung, 0.0228 µM; in the experiment on NCI/ADR-RES ovarian it was over 74.6 µM; with SK-MEL-28 melanoma, over 100 µM; in the experiment with SN12C renal, 0.237 µM; in the experiment on SNB-19 CNS it was 0.913 µM.
Consider `COc1ccc(N2C(=O)C3c4[nH]c5ccc(Br)cc5c4C4CCC(C(C)(C)C)CC4C3C2=O)cc1` (centres undefined), for which the TGI in the experiment on CCRF-CEM leukemia, in the experiment on HCC-2998 colon, with HT29 colon, in the experiment on NCI-H23 lung, in the experiment on NCI/ADR-RES ovarian and with SK-MEL-28 melanoma was over 100 µM throughout. For the same compound, the TGI in the experiment with SN12C renal and in the experiment with SNB-19 CNS was over 100 µM each time.
Take `CC1=C(c2ccccc2)NC(=S)C(C)C(c2ccccc2)=N1` (centres undefined): the TGI in the experiment on CCRF-CEM leukemia is 47.1 µM; in the experiment on HCC-2998 colon it was over 100 µM; with HT29 colon it was over 100 µM; with NCI-H23 lung, 70.4 µM; in the experiment on NCI/ADR-RES ovarian, over 100 µM; in the experiment on SK-MEL-28 melanoma it was over 100 µM. Also, the TGI with SN12C renal, with SNB-19 CNS and with UO-31 renal was over 100 µM in each case.
As to `CC1=C(O)C(=O)C2C(=O)C1C1Cc3ccccc3C21` (centres undefined), the TGI in the experiment on CCRF-CEM leukemia, with HCC-2998 colon, with HOP-92 NSCLC, in the experiment with HT29 colon, in the experiment with NCI-H23 lung and in the experiment on SK-MEL-28 melanoma was over 100 µM each time. The TGI with SNB-19 CNS and with UO-31 renal was over 100 µM throughout.
On to `CCOc1ccc(N/C(=C(/C(Cl)=C(/Cl)N2CCCCC2)[N+](=O)[O-])n2nnc3ccccc32)cc1`, for which the TGI in the experiment with HCC-2998 colon worked out at 59.2 µM; with HOP-92 NSCLC, 42 µM; with NCI-H23 lung, 29.7 µM; with NCI/ADR-RES ovarian, 43.5 µM; with SK-MEL-28 melanoma, 34.2 µM; in the experiment with SN12C renal it was 41.9 µM. In addition, the TGI with SNB-19 CNS is 44 µM; with UO-31 renal, 4.17 µM.
As for `CCOC(=O)C1=CCOc2cc(N(C)C)ccc21`, the TGI in the experiment with CCRF-CEM leukemia is 64 µM; in the experiment on HCC-2998 colon, over 100 µM; in the experiment on HT29 colon, over 100 µM; with NCI-H23 lung, over 100 µM; in the experiment with NCI/ADR-RES ovarian, over 100 µM; in the experiment with SK-MEL-28 melanoma it was over 100 µM. The TGI in the experiment with SN12C renal, with SNB-19 CNS and in the experiment on UO-31 renal was over 100 µM throughout.
On to `COc1ccc(/C(Cl)=C(\C=N/O)c2ccc(OC)c(OC)c2)cc1OC`, for which the TGI in the experiment with CCRF-CEM leukemia, in the experiment with HCC-2998 colon, with HOP-92 NSCLC, with HT29 colon, in the experiment on NCI-H23 lung and with SK-MEL-28 melanoma was over 100 µM in each case. Besides, the TGI with SN12C renal, in the experiment on SNB-19 CNS and with UO-31 renal was over 100 µM each time.
Regarding `Cc1c(N2CCN(C)CC2)nc2ccc(Cl)cc2c1-c1ccccc1`, the TGI was 42.2 µM in the experiment with CCRF-CEM leukemia; over 10 µM with HCC-2998 colon; 27.7 µM with HT29 colon; 55.4 µM in the experiment with NCI-H23 lung; 32.9 µM in the experiment with SK-MEL-28 melanoma; 29 µM with SN12C renal. Also, the TGI with SNB-19 CNS was found to be 66.2 µM; in the experiment on UO-31 renal, 36.1 µM.
On to `S=C1CCSc2c(ccc3ccccc23)N1`, for which the TGI in the experiment on CCRF-CEM leukemia, in the experiment on HT29 colon, in the experiment on NCI-H23 lung, with NCI/ADR-RES ovarian, with SK-MEL-28 melanoma and with SN12C renal was over 100 µM in each case. For the same compound, the TGI with SNB-19 CNS and in the experiment with UO-31 renal was over 100 µM in each case.
In the case of `C/C(CC(O)(/C=N/O)c1ccccc1)=N/O` (centres undefined), the TGI in the experiment with CCRF-CEM leukemia, in the experiment on HCC-2998 colon, with HT29 colon, with NCI-H23 lung, with NCI/ADR-RES ovarian and in the experiment with SK-MEL-28 melanoma was over 100 µM each time. Further, the TGI with SN12C renal, with SNB-19 CNS and with UO-31 renal was over 100 µM throughout.
In the case of `N#CC(=N)c1ncn(-c2ccc(N)cc2)c1N`, the TGI with CCRF-CEM leukemia, in the experiment on HCC-2998 colon, with HT29 colon, in the experiment with NCI-H23 lung, in the experiment on NCI/ADR-RES ovarian and in the experiment with SK-MEL-28 melanoma was over 100 µM throughout. The TGI in the experiment with SN12C renal, with SNB-19 CNS and with UO-31 renal was over 100 µM each time.
Turning to `CCOC(=O)C1=NN(c2ccc([N+](=O)[O-])cc2)[C@@]2(C)C[C@]3(c4ccccc4)N(c4ccc([N+](=O)[O-])cc4)N=C(C(=O)OCC)N3c3ccccc3N12`, the TGI in the experiment with CCRF-CEM leukemia, with HCC-2998 colon, with HT29 colon, in the experiment with NCI-H23 lung, with NCI/ADR-RES ovarian and with SK-MEL-28 melanoma was over 100 µM throughout. For the same compound, the TGI in the experiment on SN12C renal, in the experiment with SNB-19 CNS and in the experiment with UO-31 renal was over 100 µM throughout.
With `Nc1nc2ncc(CNc3ccc(C(=O)NC(CCC(=O)O)C(=O)O)cc3)nc2c(=O)[nH]1` (centres undefined), the TGI with CCRF-CEM leukemia, in the experiment on HCC-2998 colon, in the experiment on HT29 colon, in the experiment with NCI-H23 lung, in the experiment on NCI/ADR-RES ovarian and in the experiment with SK-MEL-28 melanoma was over 100 µM throughout. Besides, the TGI in the experiment with SN12C renal, in the experiment with SNB-19 CNS and with UO-31 renal was over 100 µM each time.
In the case of `Cc1ccc(/C(O)=C/C(=O)C(=O)NC23CC4CC(CC(C4)C2)C3)cc1`, the TGI in the experiment on CCRF-CEM leukemia, in the experiment with HCC-2998 colon, in the experiment on HOP-92 NSCLC, in the experiment on HT29 colon, in the experiment with NCI-H23 lung and with SK-MEL-28 melanoma was over 10 µM in each case. The compound further came in with a TGI with SN12C renal of over 10 µM.
Regarding `COc1ccc(-c2cc(=O)c3cc(OC)ccc3[nH]2)cc1`, the TGI in the experiment with CCRF-CEM leukemia, with HCC-2998 colon, with HOP-92 NSCLC, with HT29 colon, with NCI-H23 lung and in the experiment with SK-MEL-28 melanoma was over 100 µM in each case. Besides, the TGI with SN12C renal, with SNB-19 CNS and with UO-31 renal was over 100 µM each time.
In the case of `CC(C)=CCC/C(C)=C/CC/C(C)=C/CC/C(C)=C/CC/C(C)=C/CC/C(C)=C/CC/C(C)=C/CC/C(C)=C/CC/C(C)=C/CO`, the TGI with CCRF-CEM leukemia, with HCC-2998 colon, with HOP-92 NSCLC, in the experiment with HT29 colon, with NCI-H23 lung and in the experiment with SK-MEL-28 melanoma was over 100 µM throughout. In addition, the TGI with SN12C renal, in the experiment with SNB-19 CNS and in the experiment on UO-31 renal was over 100 µM throughout.
For `O=C(O)CCSCc1ccccc1`, the TGI with CCRF-CEM leukemia, in the experiment on HCC-2998 colon, in the experiment with HT29 colon, in the experiment on NCI-H23 lung, in the experiment on NCI/ADR-RES ovarian and in the experiment on SK-MEL-28 melanoma was over 100 µM each time. Besides, the TGI in the experiment on SN12C renal, in the experiment with SNB-19 CNS and with UO-31 renal was over 100 µM in each case.
With `COc1ccccc1-c1cc(=O)c2cc3c(cc2[nH]1)OCO3`, the TGI with CCRF-CEM leukemia, in the experiment with HCC-2998 colon, with HT29 colon, in the experiment on NCI-H23 lung, in the experiment on SK-MEL-28 melanoma and in the experiment on SN12C renal was over 100 µM throughout. Further, the TGI in the experiment with SNB-19 CNS and in the experiment with UO-31 renal was over 100 µM in each case.
Regarding `CC(=O)OCC1OC(n2c(-c3ccccc3)c(C(C)=O)c(-c3cccc4ccccc34)c(C#N)c2=S)C(OC(C)=O)C(OC(C)=O)C1OC(C)=O` (centres undefined), the TGI in the experiment with CCRF-CEM leukemia, in the experiment with HCC-2998 colon, with HT29 colon, in the experiment with NCI-H23 lung, with NCI/ADR-RES ovarian and in the experiment with SK-MEL-28 melanoma was over 100 µM throughout. Also, the figures for the TGI in the experiment with SN12C renal, in the experiment on SNB-19 CNS and with UO-31 renal were over 100 µM, over 100 µM and 0.0252 µM, respectively.
For `CC(C)N=C(N)NC#N`, the TGI with CCRF-CEM leukemia, in the experiment on HCC-2998 colon, in the experiment with HT29 colon, in the experiment with SN12C renal, with SNB-19 CNS and with UO-31 renal was over 100 µM throughout.
With `O=C(CN1CCOCC1)c1ccc2c(c1)oc(=O)n2CCN1CCOCC1`, the TGI with CCRF-CEM leukemia, in the experiment on HT29 colon, with NCI/ADR-RES ovarian, in the experiment with SK-MEL-28 melanoma, with SN12C renal and with SNB-19 CNS was over 100 µM in each case.
Regarding `Cc1cccc2c1c(=O)c1c(O)c3c(cc1n2C)OC(C)(C)C=C3`, the TGI with CCRF-CEM leukemia, with HCC-2998 colon, with HT29 colon, with NCI-H23 lung, with NCI/ADR-RES ovarian and in the experiment on SK-MEL-28 melanoma was over 10 µM each time. For the same compound, the TGI in the experiment on SN12C renal and with SNB-19 CNS was over 10 µM each time.
Take `Cc1cc(/C=C/c2cc[n+](C)c3ccccc23)c(O)c2ncccc12`: the TGI in the experiment with CCRF-CEM leukemia was over 37.7 µM; in the experiment on HCC-2998 colon it was 14.5 µM; in the experiment with HOP-92 NSCLC, 17 µM; in the experiment on HT29 colon it was 14.6 µM; in the experiment with NCI-H23 lung it was 4.86 µM; in the experiment with SK-MEL-28 melanoma, 13.6 µM. The TGI in the experiment with SN12C renal is 16 µM; in the experiment on SNB-19 CNS, 20.8 µM; in the experiment on UO-31 renal, 21.3 µM.

Source of the values: PubChem BioAssay (NCI).
